Source: ChEMBL document CHEMBL1153080, “Cytotoxicity mechanisms of pyrazino[1,2-b]isoquinoline-4-ones and SAR studies” (2009)
Active and inactive are the calls of the source. The rule behind the calls is not given here.

Columns and labels:
A549 [1] = experiment: Cytotoxicity against human A549 cells at < […] after 48 hrs by SRB assay; assay type: functional, cell-based
HT-29 [2] = experiment: Reduction of phosphorylated cdc2 protein level in 0.2 ug/mL nocodazole pretreated human HT-29 cells at 41 ug/mL after 24 to 72 hrs by Western blotting; assay type: functional, cell-based
HT-29 [3] = experiment: Induction cdc2 protein degradation in 10 uM proteasome inhibitor MG132 pretreated human HT-29 cells at 41 ug/mL after 6 to 36 hrs by Western blotting; assay type: functional, cell-based
HT-29 [4] = experiment: Induction Wee1 protein degradation in 10 uM proteasome inhibitor MG132 pretreated human HT-29 cells at 41 ug/mL after 6 to 36 hrs by Western blotting; assay type: functional, cell-based
HT-29 [5] = experiment: Cell cycle arrest in 0.2 ug/mL nocodazole pretreated human HT-29 cells assessed as accumulation at S phase at 41 ug/mL after 72 hrs using propidium iodide staining by flow cytometry; assay type: functional
HT-29 [6] = experiment: Cell cycle arrest in human HT-29 cells assessed as accumulation at G1 phase at 41 ug/mL after 72 hrs using propidium iodide staining by flow cytometry; assay type: functional
HT-29 [7] = experiment: Induction cdc2 protein degradation in human HT-29 cells at 41 ug/mL after 24 to 60 hrs by Western blotting; assay type: functional, cell-based
HT-29 [8] = experiment: Cell cycle arrest in human HT-29 cells assessed as accumulation at S phase at 41 ug/mL after 72 hrs using propidium iodide staining by flow cytometry; assay type: functional
HT-29 [9] = experiment: Cell cycle arrest in human HT-29 cells assessed as accumulation at G1 phase at 41 ug/mL after 24 hrs using propidium iodide staining by flow cytometry; assay type: functional
HT-29 [10] = experiment: Induction of increase in histone gamma-H2A.X levels in human HT-29 cells at 41 ug/mL after 24 to 60 hrs by Western blotting; assay type: functional, cell-based
HT-29 [11] = experiment: Cell cycle arrest in 0.2 ug/mL nocodazole pretreated human HT-29 cells assessed as accumulation at G2/M phase at 41 ug/mL after 72 hrs using propidium iodide staining by flow cytometry; assay type: functional
HT-29 [12] = experiment: Induction of apoptosis in human HT-29 cells at 41 ug/mL after 24 hrs using propidium iodide staining by flow cytometry; assay type: functional
HT-29 [13] = experiment: Cytotoxicity against human HT-29 cells assessed as reduction in cell viability at 41 ug/mL after 48 hrs by MTT assay; assay type: functional; details: HT-29, 48 h
HT-29 [14] = experiment: Induction of DNA damage signaling pathways in human HT-29 cells assessed as Chk1 phosphorylation at 41 ug/mL after 24 hrs by Western blotting; assay type: functional, cell-based
HT-29 [15] = experiment: Cell cycle arrest in human HT-29 cells assessed as accumulation at G2/M phase at 41 ug/mL after 24 hrs using propidium iodide staining by flow cytometry; assay type: functional
HT-29 [16] = experiment: Cell cycle arrest in 0.2 ug/mL nocodazole pretreated human HT-29 cells assessed as accumulation at G1 phase at 41 ug/mL after 72 hrs using propidium iodide staining by flow cytometry; assay type: functional
HT-29 [17] = experiment: Cell cycle arrest in human HT-29 cells assessed as accumulation at S phase at 41 ug/mL after 24 hrs using propidium iodide staining by flow cytometry; assay type: functional
HT-29 [18] = experiment: Induction of apoptosis in 0.2 ug/mL nocodazole pretreated human HT-29 cells at 41 ug/mL after 72 hrs using propidium iodide staining by flow cytometry; assay type: functional
HT-29 [19] = experiment: Induction of DNA damage signaling pathways in human HT-29 cells assessed as Chk2 phosphorylation at 41 ug/mL after 24 hrs by Western blotting; assay type: functional, cell-based
HT-29 [20] = experiment: Cell cycle arrest in human HT-29 cells assessed as accumulation at G2/M phase at 41 ug/mL after 72 hrs using propidium iodide staining by flow cytometry; assay type: functional
HT-29 [21] = experiment: Induction cdc2 protein degradation in 300 uM protein synthesis inhibitor cycloheximide pretreated human HT-29 cells at 41 ug/mL after 6 to 36 hrs by Western blotting; assay type: functional, cell-based
MDA-MB-231 = experiment: Cytotoxicity against human MDA-MB-231 cells at < […] after 48 hrs by SRB assay; assay type: functional, cell-based
HT-29 [22] = experiment: Induction of apoptosis in human HT-29 cells at 41 ug/mL after 72 hrs using propidium iodide staining by flow cytometry; assay type: functional
HT-29 [23] = experiment: Cytotoxicity against human HT-29 cells at < […] after 48 hrs by SRB assay; assay type: functional, cell-based
HT-29 [24] = experiment: Growth inhibition of human HT-29 cells; assay type: functional
HT-29 [25] = experiment: Induction Wee1 protein degradation in 300 uM protein synthesis inhibitor cycloheximide pretreated human HT-29 cells at 41 ug/mL after 6 to 36 hrs by Western blotting; assay type: functional, cell-based
HT-29 [26] = experiment: Induction Cyclin B1 protein degradation in human HT-29 cells at 41 ug/mL after 24 to 60 hrs by Western blotting; assay type: functional, cell-based
HT-29 [27] = experiment: Induction Wee1 protein degradation in human HT-29 cells at 41 ug/mL after 24 to 60 hrs by Western blotting; assay type: functional, cell-based
HT-29 [28] = experiment: Induction of DNA damage signaling pathways in human HT-29 cells assessed as p53 phosphorylation at 41 ug/mL after 24 hrs by Western blotting; assay type: functional, cell-based
A549 [29] = experiment: Growth inhibition of human A549 cells; assay type: functional

## COc1c(C)c(OC)c(OC)c2c1C[C@H]1CN(C(=O)OC(C)C)CC(=O)N1[C@H]2COCc1ccccc1
A549 [1]
  inhibition: Active
HT-29 [2]
  Activity: Active
HT-29 [3]
  Activity: Active
HT-29 [4]
  Activity: inactive
HT-29 [5]
  Activity: 13.4%
HT-29 [6]
  Activity: 45.9%
HT-29 [7]
  Activity: inactive
HT-29 [8]
  Activity: 12.8%
HT-29 [9]
  Activity: 61.4%
HT-29 [10]
  Activity: inactive
HT-29 [11]
  Activity: 18.3%
HT-29 [12]
  Activity: 4.3%
HT-29 [13]
  inhibition at 41 µg/mL: 80%
HT-29 [14]
  Activity: inactive
HT-29 [15]
  Activity: 16.4%
HT-29 [16]
  Activity: 31%
HT-29 [17]
  Activity: 15.2%
HT-29 [18]
  Activity: 35.6%
HT-29 [19]
  Activity: inactive
HT-29 [20]
  Activity: 10.4%
HT-29 [21]
  Activity: Active
MDA-MB-231
  inhibition: Active
HT-29 [22]
  Activity: 29.9%
HT-29 [23]
  inhibition: Active
HT-29 [24]
  GI: 1.95 ×10⁻⁷ M
HT-29 [25]
  Activity: Active
HT-29 [26]
  Activity: inactive
HT-29 [27]
  Activity: inactive
HT-29 [28]
  Activity: inactive

## COc1c(C)c(OC)c(OC)c2c1C[C@H]1CN(C(=O)OC(C)C)CC(=O)N1[C@H]2CO
A549 [1]
  inhibition: inactive
MDA-MB-231
  inhibition: inactive
HT-29 [23]
  inhibition: inactive

## COc1c(C)c(OC)c(OC)c2c1C[C@H]1CNCC(=O)N1[C@H]2CO (relative stereo)
A549 [1]
  inhibition: inactive
MDA-MB-231
  inhibition: inactive
HT-29 [23]
  inhibition: inactive

## COc1c(C)c(OC)c(OC)c2c1C[C@H]1[C@@H](O)N(C(=O)OC(C)C)CC(=O)N1[C@H]2COCc1ccccc1
A549 [29]
  GI: 5.68 ×10⁻⁶ M

## COc1c(C)c(OC)c(OC)c2c1C[C@H]1CN(C(=O)OC(C)C)C[C@@H](C#N)N1[C@H]2COC(=O)/C=C/c1ccccc1 (relative stereo)
A549 [1]
  inhibition: inactive
MDA-MB-231
  inhibition: inactive
HT-29 [23]
  inhibition: inactive

## COc1c(C)c(OC)c(OC)c2c1C[C@H]1CN(C(=O)OC(C)C)C[C@@H](C#N)N1[C@H]2CO (relative stereo)
A549 [1]
  inhibition: inactive
MDA-MB-231
  inhibition: inactive
HT-29 [23]
  inhibition: inactive

## COc1c(C)c(OC)c(OC)c2c1C[C@H]1CN(C(=O)OC(C)C)C[C@@H](C#N)N1[C@H]2COC(=O)c1cccc2ccccc12 (relative stereo)
A549 [1]
  inhibition: inactive
MDA-MB-231
  inhibition: inactive
HT-29 [23]
  inhibition: inactive

## COc1c(C)c(OC)c(OC)c2c1C[C@H]1CN(C)CC(=O)N1[C@H]2CO (relative stereo)
A549 [1]
  inhibition: inactive
MDA-MB-231
  inhibition: inactive
HT-29 [23]
  inhibition: inactive

## COc1c(C)c(OC)c(OC)c2c1C[C@H]1CN(C(=O)OC(C)C)CC(=O)N1[C@H]2CO[Si](c1ccccc1)(c1ccccc1)C(C)(C)C (relative stereo)
A549 [1]
  inhibition: inactive
MDA-MB-231
  inhibition: inactive
HT-29 [23]
  inhibition: inactive

## COc1c(C)c(OC)c(OC)c2c1C[C@H]1CN(C)C[C@H]3OC[C@@H]2N13 (relative stereo)
A549 [1]
  inhibition: inactive
MDA-MB-231
  inhibition: inactive
HT-29 [23]
  inhibition: inactive

## COc1c(C)c(OC)c(OC)c2c1C[C@H]1CN(C(=O)OC(C)C)C[C@H]3OC[C@@H]2N13 (relative stereo)
A549 [1]
  inhibition: inactive
MDA-MB-231
  inhibition: inactive
HT-29 [23]
  inhibition: inactive
